Test results: BindingDB's records for doi:10.1021/jm980200+ (St. Cloud State University, 1998)

Experiment: Inhibitory activity against yeast aldehyde dehydrogenase (AIDH)

Row | SMILES | IC50
1 | CC(=O)ON(C(C)=O)S(C)(=O)=O [N-Acetoxy-N-acetyl-methanesulfonamide] | 1000 µM
2 | CC(=O)ON(c1ccccc1)S(=O)(=O)c1ccccc1 [N-Acetoxy-N-phenyl-benzenesulfonamide] | 36 µM
3 | O=Nc1ccccc1 [NOB] | 2.5 µM
4 | CCOC(=O)ON(C(=O)OCC)S(C)(=O)=O [ethyl (ethoxycarbonyl)oxy(methylsulfonyl)carbamate] | 35.6 µM
5 | COC(=O)ON(C(=O)OC)S(C)(=O)=O [methyl (methoxycarbonyl)oxy(methylsulfonyl)carbamate] | 20.9 µM

The remaining lines, values ahead:

Row | IC50 | SMILES
6 | > 1000 µM | CON(c1ccccc1)S(=O)(=O)c1ccccc1 [N-Methoxy-N-phenyl-benzenesulfonamide]
7 | 64.3 µM | CCOC(=O)ON(c1ccccc1)S(=O)(=O)c1ccccc1 [N-[(ethoxycarbonyl)oxy]-N-phenylbenzenesulfonamide]
8 | 38.3 µM | COC(=O)ON(c1ccccc1)S(=O)(=O)c1ccccc1 [N-[(methoxycarbonyl)oxy]-N-phenylbenzenesulfonamide]
